Test results reported in the supplement of paper PMC11208160.

Test: recombinant barcode read abundance after kanamycin selection (control-corrected) (log10(CPM+1)); higher = more efficient recombination; sequences stand for … in AGTGCAGAGAAAATCGGCCAGTTTTCTCTGCCTGCAGTCCGCATGCCGT…AGATTTATGCAGCGGACTGCCTTTCTCCCAAAGTGATAAACCGGACAGTATCATGGACCGGTTTTCCCGGTAATCCGTATTTGCAAGGTTGGTTTCACT; site = the 11-nt target
Summary of the method: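 A promoter, a target, a barcode and the first 104 bridge RNA bases under J23119 made up each oligo. Oligos were Gibson-cloned into a vector bearing the other 73 bp and a T7-inducible recombinase, then co-electroporated into E. coli with a donor plasmid and plated in duplicate on chloramphenicol/ampicillin LB agar (control) or chloramphenicol/ampicillin/kanamycin with 0.1 mM IPTG. Recombination efficiency is the averaged, control-corrected counts per million of recombinant-junction barcodes. Reported values are log10(CPM+1).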
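Also: IS621 recombinase and bridge RNA in Escherichia coli cells.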

Row | Sequence | recombinant barcode read abundance (log10)
1 | GACGTAGCTTGGGTTCTAACCTGTTGCCT (site GACGTAGCTAG) | 1.6
2 | GACGTAGCTTGGGTTCTAACCTGTTGCCT (site GCCGTAGCTAG) | 0.083
3 | GACGTAGCTTGGGTTCTAACCTGTTGCCT (site GGCGTAGCTAG) | 0.52
4 | GACGTAGCTTGGGTTCTAACCTGTTGCCT (site GTCGTAGCTAG) | 0.279
5 | GACGTTGCTTGGGTTCTAACCTGTTGCCT (site GACGTTGCTAG) | 1.32
6 | GACGTTGCTTGGGTTCTAACCTGTTGCCT (site GACTTTACTAG) | 0.102
7 | GACTACCCTTGGGTTCTAACCTGTTGCCT (site ATGCTGTCTTA) | 0.0344
8 | GACTACCCTTGGGTTCTAACCTGTTGCCT (site GACTACCCTAG) | 2.2
9 | GACTCCGCTTGGGTTCTAACCTGTTGCCT (site GACTCCGCTAG) | 0.876
10 | GACTCCGCTTGGGTTCTAACCTGTTGCCT (site TACTCCGCTAG) | 0.692
11 | GACTCGACTTGGGTTCTAACCTGTTGCTT (site GAATCAACTAA) | 0.122
12 | GACTCGACTTGGGTTCTAACCTGTTGCTT (site GACTCGACTAA) | 0.395
13 | GACTCTCCTTGGGTTCTAACCTGTTGCTT (site GACTCTCCTAA) | 1.53
14 | GACTCTCCTTGGGTTCTAACCTGTTGCTT (site GACTCTCCTAC) | 0.0892
15 | GACTCTCCTTGGGTTCTAACCTGTTGCTT (site GACTCTCCTAG) | 0.029
16 | GACTCTCCTTGGGTTCTAACCTGTTGCTT (site GACTCTCCTAT) | 0.241
17 | GACTGGTCTTGGGTTCTAACCTGTTGCAT (site GACTGGTCTAG) | 0.969
18 | GACTGGTCTTGGGTTCTAACCTGTTGCAT (site GACTGGTCTAT) | 1.6
19 | GACTGGTCTTGGGTTCTAACCTGTTGCCT (site GACTGGTCTAG) | 1.45
20 | GACTGGTCTTGGGTTCTAACCTGTTGCCT (site GACTGGTCTAT) | 0.364
21 | GACTTACCTTGGGTTCTAACCTGTTGCCT (site GACATACCTAG) | 0.134
22 | GACTTACCTTGGGTTCTAACCTGTTGCCT (site GACCTACCTAG) | 1.43

Row | Sequence | recombinant barcode read abundance (log10)
23 | GACTTACCTTGGGTTCTAACCTGTTGCCT (site GACGTACCTAG) | 0.111
24 | GACTTACCTTGGGTTCTAACCTGTTGCCT (site GACTTACCTAG) | 0.843
25 | GACTTGCCTTGGGTTCTAACCTGTTGCAT (site GACTTACCTAT) | 0.0511
26 | GACTTGCCTTGGGTTCTAACCTGTTGCAT (site GACTTCCCTAT) | 0.113
27 | GACTTGCCTTGGGTTCTAACCTGTTGCAT (site GACTTGCCTAT) | 0.313
28 | GACTTGCCTTGGGTTCTAACCTGTTGCAT (site GACTTTCCTAT) | 0.813
29 | GAGAAGACTTGGGTTCTAACCTGTTGCGT (site ACTCGTCCTTA) | 0.118
30 | GAGAAGACTTGGGTTCTAACCTGTTGCGT (site GAGAAGACTAC) | 2.56
31 | GAGACATCTTGGGTTCTAACCTGTTGCCT (site GAGAAATCTAG) | 0.11
32 | GAGACATCTTGGGTTCTAACCTGTTGCCT (site GAGACATCTAG) | 0.732
33 | GAGACATCTTGGGTTCTAACCTGTTGCCT (site GAGAGATCTAG) | 0.463
34 | GAGACATCTTGGGTTCTAACCTGTTGCCT (site GAGATATCTAG) | 0.206
35 | GAGAGAACTTGGGTTCTAACCTGTTGCCT (site CCATAGGCTCA) | 0.0856
36 | GAGAGAACTTGGGTTCTAACCTGTTGCCT (site GAGAGAACTAG) | 1.51
37 | GAGAGGTCTTGGGTTCTAACCTGTTGCGT (site GAGAGGTCTAA) | 0.502
38 | GAGAGGTCTTGGGTTCTAACCTGTTGCGT (site GAGAGGTCTAC) | 2.5
39 | GAGAGGTCTTGGGTTCTAACCTGTTGCGT (site GAGAGGTCTAG) | 0.613
40 | GAGAGGTCTTGGGTTCTAACCTGTTGCGT (site GAGAGGTCTAT) | 1.53
41 | GAGAGTCCTTGGGTTCTAACCTGTTGCCA (site ATTGAGACTAA) | 0.281
42 | GAGAGTCCTTGGGTTCTAACCTGTTGCCA (site GAGAGTCCTTG) | 1.24
43 | GAGATTCCTTGGGTTCTAACCTGTTGCCT (site CAGATTCCTAG) | 0.0463
44 | GAGATTCCTTGGGTTCTAACCTGTTGCCT (site GAGATTCCTAG) | 0.399

Row | Sequence | recombinant barcode read abundance (log10)
45 | GAGCAAACTTGGGTTCTAACCTGTTGCCT (site GAGCAAACTAG) | 1.2
46 | GAGCAAACTTGGGTTCTAACCTGTTGCCT (site GATCAATCTAG) | 0.16
47 | GAGCATACTTGGGTTCTAACCTGTTGCCT (site GAGCATACTAG) | 1.62
48 | GAGCATACTTGGGTTCTAACCTGTTGCCT (site GAGGGTACTAG) | 0.0325
49 | GAGCCACCTTGGGTTCTAACCTGTTGCCT (site AAGCCACCTAG) | 0.868
50 | GAGCCACCTTGGGTTCTAACCTGTTGCCT (site CAGCCACCTAG) | 0.236
51 | GAGCCACCTTGGGTTCTAACCTGTTGCCT (site GAGCCACCTAG) | 1.48
52 | GAGCCACCTTGGGTTCTAACCTGTTGCCT (site TAGCCACCTAG) | 0.911
53 | GAGCCGGCTTGGGTTCTAACCTGTTGCTT (site GAGACGGCTAA) | 0.0584
54 | GAGCCGGCTTGGGTTCTAACCTGTTGCTT (site GAGCCGGCTAA) | 1.32
55 | GAGCCGGCTTGGGTTCTAACCTGTTGCTT (site GAGGCGGCTAA) | 0.3
56 | GAGCCGGCTTGGGTTCTAACCTGTTGCTT (site GAGTCGGCTAA) | 0.337
57 | GAGCGAGCTTGGGTTCTAACCTGTTGCGG (site GAGCGAGCTCA) | 0.0195
58 | GAGCGAGCTTGGGTTCTAACCTGTTGCGG (site GAGCGAGCTCC) | 1.13
59 | GAGCGAGCTTGGGTTCTAACCTGTTGCGG (site GAGCGAGCTCG) | 0.196
60 | GAGCGAGCTTGGGTTCTAACCTGTTGCGG (site GAGCGAGCTCT) | 1.07
61 | GAGCGAGCTTGGGTTCTAACCTGTTGCTG (site GAGCGAGCTCA) | 1.5
62 | GAGCGAGCTTGGGTTCTAACCTGTTGCTG (site GAGCGAGCTCC) | 0.41
63 | GAGCGAGCTTGGGTTCTAACCTGTTGCTG (site GAGCGAGCTCG) | 0.529
64 | GAGCGAGCTTGGGTTCTAACCTGTTGCTG (site GAGCGAGCTCT) | 1.25
65 | GAGCGCTCTTGGGTTCTAACCTGTTGCAG (site GAGCGCTCTCT) | 1.42
66 | GAGCGCTCTTGGGTTCTAACCTGTTGCAG (site GAGTGCTCTCT) | 0.0694

Row | Sequence | recombinant barcode read abundance (log10)
67 | GAGCGTCCTTGGGTTCTAACCTGTTGCAG (site GAGCGTCCTCT) | 1.26
68 | GAGCGTCCTTGGGTTCTAACCTGTTGCAG (site GAGTTTCCTCT) | 0.0296
69 | GAGCGTCCTTGGGTTCTAACCTGTTGCCG (site CAGTGTCCTCG) | 0.0924
70 | GAGCGTCCTTGGGTTCTAACCTGTTGCCG (site GAGCGTCCTCG) | 0.739
71 | GAGCGTTCTTGGGTTCTAACCTGTTGCCT (site GAGCGCTCTCG) | 0.199
72 | GAGCGTTCTTGGGTTCTAACCTGTTGCCT (site GAGCGTTCTAG) | 1.47
73 | GAGCTACCTTGGGTTCTAACCTGTTGCCC (site GAGCTACCTAG) | 1.48
74 | GAGCTACCTTGGGTTCTAACCTGTTGCCC (site GAGCTACCTCG) | 0.199
75 | GAGCTACCTTGGGTTCTAACCTGTTGCCC (site GAGCTACCTGG) | 1.72
76 | GAGCTACCTTGGGTTCTAACCTGTTGCCC (site GAGCTACCTTG) | 0.85
77 | GAGCTAGCTTGGGTTCTAACCTGTTGCGT (site GAGCTAGCTAC) | 2.41
78 | GAGCTAGCTTGGGTTCTAACCTGTTGCGT (site GAGCTAGCTGC) | 0.155
79 | GAGGACTCTTGGGTTCTAACCTGTTGCCG (site GAGGACTCTAG) | 2.41
80 | GAGGACTCTTGGGTTCTAACCTGTTGCCG (site GAGGACTCTCG) | 2.32
81 | GAGGACTCTTGGGTTCTAACCTGTTGCCG (site GAGGACTCTGG) | 0.458
82 | GAGGACTCTTGGGTTCTAACCTGTTGCCG (site GAGGACTCTTG) | 0.476
83 | GAGGCTACTTGGGTTCTAACCTGTTGCAT (site ACAAGGGCTCA) | 0.0274
84 | GAGGCTACTTGGGTTCTAACCTGTTGCAT (site GAGGCTACTAT) | 1.26
85 | GAGGCTCCTTGGGTTCTAACCTGTTGCCC (site GAGGCTCCTAG) | 0.372
86 | GAGGCTCCTTGGGTTCTAACCTGTTGCCC (site GAGGCTCCTCG) | 0.174
